Literature values as cited in US20260138960A1, “A PROCESS FOR THE PREPARATION OF CRYSTALLINE FORM OF TAFAMIDIS” (BIOPHORE INDIA PHARMACEUTICALS PVT. LTD, priority 2022, published 2026).

Details: poorly soluble, but permeate biological membranes well

O=C(O)c1ccc2nc(-c3cc(Cl)cc(Cl)c3)oc2c1 [Tafamidis, 2-(3,5-dichlorophenyl)-1,3-benzoxazole-6-carboxylic acid]
biopharmaceutical classification system (BCS) class: class II

CNC[C@H](O)[C@@H](O)[C@H](O)[C@H](O)CO.O=C(O)c1ccc2nc(-c3cc(Cl)cc(Cl)c3)oc2c1 [Tafamidis meglumine]
biopharmaceutical classification system (BCS) class: class II
